# Results from US20240425478A1, “CYCLOPENTYLPYRAZOLE CDK2 INHIBITORS” (Genentech, Inc., priority 2021, published 2024).
# Like-named read-outs stand apart in the source and are kept apart here.
# Tests used:
# [1] = biological target: T1, Cyclin Dependent Kinase 1/Cyclin A2 (CDK1-cycA2) (Homo sapiens, UniProt P06493); test: CDK1-cycA2 TR-FRET (Lance) enzyme assay; format: biochemical; details: for Ki: Table O, enzymatic assay; for FS CDK1/CDK2: fold selectivity, enzymatic Ki ratio
# T1 construct: purchased ProQinase 0134-0054-1
# T1 sequence (P06493 whole entry): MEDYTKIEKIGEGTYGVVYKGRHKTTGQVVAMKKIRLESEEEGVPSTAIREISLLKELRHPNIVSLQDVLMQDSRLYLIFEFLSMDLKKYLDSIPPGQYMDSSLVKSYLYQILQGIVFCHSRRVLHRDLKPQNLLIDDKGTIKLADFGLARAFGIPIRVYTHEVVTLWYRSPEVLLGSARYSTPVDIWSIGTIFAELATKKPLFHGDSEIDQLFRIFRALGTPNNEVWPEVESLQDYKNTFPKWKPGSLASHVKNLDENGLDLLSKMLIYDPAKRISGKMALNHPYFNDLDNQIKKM
# T1 sequence (P20248 whole entry partner): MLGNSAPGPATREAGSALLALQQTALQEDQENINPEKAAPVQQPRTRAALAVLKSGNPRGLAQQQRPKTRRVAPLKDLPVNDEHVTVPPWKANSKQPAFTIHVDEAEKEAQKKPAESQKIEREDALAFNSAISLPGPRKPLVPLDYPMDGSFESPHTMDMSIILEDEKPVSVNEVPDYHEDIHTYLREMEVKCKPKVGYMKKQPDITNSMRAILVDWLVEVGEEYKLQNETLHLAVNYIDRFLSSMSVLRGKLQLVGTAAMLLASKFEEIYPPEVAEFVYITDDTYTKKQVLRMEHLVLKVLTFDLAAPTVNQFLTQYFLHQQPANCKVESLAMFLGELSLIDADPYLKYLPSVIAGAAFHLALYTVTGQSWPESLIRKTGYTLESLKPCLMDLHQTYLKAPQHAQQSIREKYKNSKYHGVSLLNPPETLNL
# Summary of the method: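 Human CDK1/cyclin A2 pre-incubated 30 min with compound dose responses in 50 mM HEPES pH 7.5, 10 mM MgCl2, 2 mM TCEP, 0.05% BGG, 0.01% Brij 35. Reaction quenched with EDTA (15 mM final); TR-FRET readout using Eu-anti-phospho-4E-BP1, acceptor/donor ratio. Inhibition constants from Morrison equation.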
# [2] = biological target: T2, Cyclin Dependent Kinase 2/Cyclin E1 (CDK2-cycE1) (Homo sapiens, UniProt P24941); test: CDK2-cycE1 TR-FRET (LANCE) enzyme assay; format: biochemical; details: for FS CDK1/CDK2 / FS CDK4/CDK2: fold selectivity; for increased fold-selectivity CDK4/CDK2 over Comparator C: (+) sign after FS CDK4/CDK2;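 as to improvement in potency against CDK2 (Ki) over Comparator C: fold lower CDK2 Ki than comparator c (Ki 0.032 µM)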
# T2 construct: purchased ProQinase 0050-0055-1
# Summary of the method: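 Compound dose responses pre-incubated 30 min with CDK2-cycE1 in 50 mM HEPES pH 7.5, 10 mM MgCl2, 2 mM TCEP, 0.05% BGG, 0.01% Brij 35. Reaction quenched with EDTA (15 mM final), phospho-MBP detected by Eu-anti-phospho-MBP TR-FRET (acceptor/donor ratio). Inhibition constants from Morrison equation.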
# [3] = biological target: T3, Cyclin Dependent Kinase 4/Cyclin D3 (CDK4-cycD3) (Homo sapiens, UniProt P11802); test: CDK4-cycD3 TR-FRET (LANCE) enzyme assay; format: biochemical; details: for Ki: Table O, enzymatic assay; for FS CDK4/CDK2: fold selectivity, enzymatic Ki ratio
# T3 construct: purchased Carna Biosciences 04-105
# T3 sequence (P11802 whole entry): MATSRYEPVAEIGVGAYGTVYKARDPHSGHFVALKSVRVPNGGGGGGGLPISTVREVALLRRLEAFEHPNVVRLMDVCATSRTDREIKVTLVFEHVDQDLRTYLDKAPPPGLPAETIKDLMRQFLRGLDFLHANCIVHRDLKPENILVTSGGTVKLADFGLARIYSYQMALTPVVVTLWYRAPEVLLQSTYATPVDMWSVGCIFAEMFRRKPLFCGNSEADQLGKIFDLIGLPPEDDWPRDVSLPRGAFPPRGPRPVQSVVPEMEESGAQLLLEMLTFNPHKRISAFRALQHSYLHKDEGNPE
# T3 sequence (P30281 whole entry partner): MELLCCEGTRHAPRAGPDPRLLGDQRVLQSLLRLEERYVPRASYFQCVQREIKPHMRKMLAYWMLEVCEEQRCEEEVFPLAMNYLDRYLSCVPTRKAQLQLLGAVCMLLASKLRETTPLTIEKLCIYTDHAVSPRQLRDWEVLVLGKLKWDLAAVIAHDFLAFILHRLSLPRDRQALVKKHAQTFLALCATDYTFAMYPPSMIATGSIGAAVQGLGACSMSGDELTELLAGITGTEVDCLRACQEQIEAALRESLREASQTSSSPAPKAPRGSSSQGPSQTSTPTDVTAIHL
# Summary of the method: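 Compound dose responses pre-incubated 30 min with enzyme mix in 50 mM HEPES pH 7.5, 10 mM MgCl2, 2 mM TCEP, 0.05% BGG, 0.01% Brij 35. Reaction quenched with EDTA (15 mM final); Eu-anti-phospho-4E-BP1 TR-FRET detection, acceptor/donor ratio. Ki derived by Morrison equation.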
# [4] = tested on: OVISE (JCRB1043, CCNE1-amplified); test: OVISE EdU incorporation cell proliferation assay (CDK2-dependent); format: cell-based; details: for IC50: cellular assay, read-out: CDK2 OVISE IC50; for FS SKOV-3/OVISE / FS p-H3/OVISE: fold selectivity; for FS p-H3/OVISE: cellular p-H3 IC50 over OVISE IC50; for increased fold-selectivity SKOV-3/OVISE over Comparator C: (+) sign after FS SKOV-3/OVISE; for improvement in CDK2 OVISE cell potency over Comparator C: Comparator C 5.5 μM
# Summary of the method: (§1)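 Cells in RPMI/10% FBS dosed with compound (0.5% DMSO final) for 16 h at 37 °C, 5% CO2, then EdU 0.5 μM final for 8 h before fixation and imaging. IC50 from 4-parameter logistic fit of EdU-positive cell fraction versus dose.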
# SKOV-3 (ATCC HTB-77) = test: SKOV-3 EdU incorporation cell proliferation assay (CDK4/6-dependent); format: cell-based; details: for IC50: Homo sapiens, cellular assay, read-out: CDK4/6 SKOV-3 IC50; for FS SKOV-3/OVISE: fold selectivity, cellular IC50 ratio
# Summary of the method: as §1
# HCT116 cells = test: p-H3 HCT-116 mitotic release cell proliferation assay (cellular CDK1); format: cell-based; details: Homo sapiens, HCT-116; Table O, cellular assay; read-out: CDK1 p-H3 IC50
# Summary of the method: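 HCT116 cells arrested 16 h with 500 nM nocodazole, then exposed to compound for 4 h at 37 °C (0.1% DMSO). Lysates read by HTRF/FRET with donor and acceptor phospho-Histone H3 (Ser10) antibodies, ≥2 h at room temperature; CDK1 inhibition seen as loss of p-H3 on mitotic release.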
# [5] = Table O, enzymatic assay, read-out: CDK2 Ki
# [6] = Table O, enzymatic CDK1 Ki over CDK2 Ki
# [7] = Table O, enzymatic CDK4 Ki over CDK2 Ki
# [8] = Table Q, enzymatic assay, read-out: CDK2 Ki
# [9] = Table O, cellular SKOV-3 IC50 over OVISE IC50
# [10] = Table Q, in brackets after OVISE IC50
smiles,measurement,setting,value
"CC(C)NC(=O)O[C@@H]1CC[C@H](c2cc(Nc3cccnc3)n[nH]2)C1 [Example 2A, (1R,3S)-3-(3-(pyridin-3-ylamino)-1H-pyrazol-5-yl)cyclopentyl isopropylcarbamate]",Ki,[1],71 nM
same,"FS CDK1/CDK2 increased over Comparator D, (+) sign",[1]; Table R,(+)
same,FS CDK1/CDK2,[1]; Table R,42
same,FS CDK1/CDK2,[1]; Table S,42
same,improvement in potency against CDK2 (Ki) over Comparator C,[2],19 fold
same,Ki,[2]; [5],1.7 nM
same,FS CDK1/CDK2,[2]; [6],42
same,FS CDK4/CDK2,[2]; [7],44
same,increased fold-selectivity CDK1/CDK2 over Comparator C,"[2]; Table Q, (+) sign after FS CDK1/CDK2",(+) (The (+) sign in Table Q signifies desirable increased fold-selectivity of the exemplary compounds over Comparator C)
same,increased fold-selectivity CDK4/CDK2 over Comparator C,[2]; Table Q,(+) (The (+) sign in Table Q signifies desirable increased fold-selectivity of the exemplary compounds over Comparator C)
same,Ki,[2]; [8],1.7 nM
same,FS CDK1/CDK2,"[2]; Table Q, enzymatic",42
same,FS CDK4/CDK2,"[2]; Table Q, enzymatic",44
same,Ki,"[2]; Table R, enzymatic assay, read-out: CDK2 Ki",1.7 nM
same,CDK2 Ki fold change in potency versus Comparator D,"[2]; Table R, in brackets after CDK2 Ki",1.6 fold
same,Ki,"[2]; Table S, enzymatic assay, read-out: CDK2 Ki",1.7 nM
same,CDK2 Ki fold change in potency versus Comparator E,"[2]; Table S, in brackets after CDK2 Ki",0.3 fold
same,Ki,[3],75 nM
same,"FS CDK4/CDK2 increased over Comparator D, (+) sign",[3]; Table R,(+)
same,FS CDK4/CDK2,[3]; Table R,44
same,FS CDK4/CDK2,[3]; Table S,44
same,CDK2 cell potency compared with Comparator E,[4]; CDK2 OVISE cellular assay data,more potent CDK2 cell inhibitors compared to Comparator E
same,IC50,[4]; Table O,110 nM
same,FS SKOV-3/OVISE,[4]; [9],20
same,FS p-H3/OVISE,[4]; Table O,0.66
same,increased fold-selectivity SKOV-3/OVISE over Comparator C,[4]; Table Q,(+) (The (+) sign in Table Q signifies desirable increased fold-selectivity of the exemplary compounds over Comparator C)
same,FS SKOV-3/OVISE,"[4]; Table Q, cellular",20
same,improvement in CDK2 OVISE cell potency over Comparator C,[4]; [10],50 fold
same,CDK2 OVISE IC50 fold change in potency versus Comparator D,"[4]; Table R, in brackets after OVISE IC50",35 fold
same,CDK2 OVISE IC50 fold change in potency versus Comparator E,"[4]; Table S, in brackets after OVISE IC50",1.5 fold
same,IC50,"SKOV-3 (ATCC HTB-77); SK-OV-3, Table O",2200 nM
same,IC50,"SKOV-3 (ATCC HTB-77); SK-OV-3, Table Q",2200 nM
same,IC50,"SKOV-3 (ATCC HTB-77); SK-OV-3, Table R",2200 nM
same,IC50,"SKOV-3 (ATCC HTB-77); SK-OV-3, Table S",2200 nM
same,selectivity for CDK2 over CDK4 compared with Comparator E,SKOV-3 (ATCC HTB-77); SKOV-3/OVISE fold-selectivity cellular assay data,increase in selectivity for CDK2 over CDK4
same,"FS SKOV-3/OVISE increased over Comparator D, (+) sign",SKOV-3 (ATCC HTB-77); Table R,(+)
same,FS SKOV-3/OVISE,SKOV-3 (ATCC HTB-77); Table R,20
same,"FS SKOV-3/OVISE increased over Comparator E, (+) sign",SKOV-3 (ATCC HTB-77); Table S,(+)
same,FS SKOV-3/OVISE,SKOV-3 (ATCC HTB-77); Table S,20
same,IC50,HCT116 cells,94 nM
"CC1(NC(=O)O[C@@H]2CC[C@H](c3cc(Nc4cccnn4)n[nH]3)C2)CC1 [Example 3A, (1R,3S)-3-(3-(pyridazin-3-ylamino)-1H-pyrazol-5-yl)cyclopentyl (1-methylcyclopropyl)carbamate]",Ki,[1],72 nM
same,Ki,[2]; [5],2.5 nM
same,FS CDK1/CDK2,[2]; [6],29
same,FS CDK4/CDK2,[2]; [7],60
same,Ki,[3],150 nM
same,IC50,[4]; Table O,130 nM
same,FS SKOV-3/OVISE,[4]; [9],21
same,FS p-H3/OVISE,[4]; Table O,1.2
same,IC50,"SKOV-3 (ATCC HTB-77); SK-OV-3, Table O",2700 nM
same,IC50,HCT116 cells,160 nM
"CC(C)NC(=O)O[C@@H]1CC[C@H](c2cc(Nc3ccnc(N(C)C)n3)n[nH]2)C1 [Example 2I, (1R,3S)-3-(3-((2-(dimethylamino)pyrimidin-4-yl)amino)-1H-pyrazol-5-yl)cyclopentyl isopropylcarbamate]",Ki,[1],6 nM
same,improvement in potency against CDK2 (Ki) over Comparator C,[2],103 fold
same,Ki,[2]; [5],0.31 nM
same,FS CDK1/CDK2,[2]; [6],19
same,FS CDK4/CDK2,[2]; [7],87
same,increased fold-selectivity CDK4/CDK2 over Comparator C,[2]; Table Q,(+) (The (+) sign in Table Q signifies desirable increased fold-selectivity of the exemplary compounds over Comparator C)
same,Ki,[2]; [8],0.31 nM
same,FS CDK1/CDK2,"[2]; Table Q, enzymatic",19
same,FS CDK4/CDK2,"[2]; Table Q, enzymatic",87
same,Ki,[2]; read-out: CDK2 activity / potency (enzymatic assay),≤ 1 nM
same,Ki,[3],27 nM
same,IC50,[4]; Table O,67 nM
same,FS SKOV-3/OVISE,[4]; [9],15
same,FS p-H3/OVISE,[4]; Table O,0.14
same,increased fold-selectivity SKOV-3/OVISE over Comparator C,[4]; Table Q,(+) (The (+) sign in Table Q signifies desirable increased fold-selectivity of the exemplary compounds over Comparator C)
same,FS SKOV-3/OVISE,"[4]; Table Q, cellular",15
same,improvement in CDK2 OVISE cell potency over Comparator C,[4]; [10],82 fold
same,IC50,"SKOV-3 (ATCC HTB-77); SK-OV-3, Table O",1000 nM
same,IC50,"SKOV-3 (ATCC HTB-77); SK-OV-3, Table Q",1000 nM
same,IC50,HCT116 cells,9.4 nM
